Data: patent US12559464B2, “Quinazolinone dione compounds and uses thereof” (Edgewise Therapeutics, Inc., priority 2023, dated 2026)

Columns and labels:
[1] = system: myosin ATPase, Rabbit Psoas myofibrils; test: Myofibril ATPase assay, rabbit psoas (skeletal) myofibrils; format: biochemical; conditions: Rabbit Psoas Prep pCa 25 GEOM_MEAN; for Rabbit Psoas EC25 (Y75 value): concentration required to reduce myosin ATP-ase activity by 25%
[2] = system: myosin ATPase, Porcine Atria myofibrils; test: Myofibril ATPase assay, porcine atria myofibrils; format: biochemical; conditions: concentration required to reduce myosin ATP-ase activity by 25%; Porcine Atria Prep pCa 25 GEOM_MEAN
[3] = target: T1, myosin ATPase, Porcine Ventricle myofibrils (Sus scrofa, UniProt P79293); test: Myofibril ATPase assay, porcine ventricle myofibrils; format: biochemical, porcine (Yucatan minipigs); conditions: concentration required to reduce myosin ATP-ase activity by 25%; Porcine Ventricle Prep pCa 25 GEOM_MEAN
T1 construct: Myofibrils from porcine cardiac muscle was isolated from the left ventricle of Yucatan minipigs; tissue Exemplar Genetics; host or cells: left ventricle of Yucatan minipigs, myofibrils
T1 sequence (P79293 whole entry): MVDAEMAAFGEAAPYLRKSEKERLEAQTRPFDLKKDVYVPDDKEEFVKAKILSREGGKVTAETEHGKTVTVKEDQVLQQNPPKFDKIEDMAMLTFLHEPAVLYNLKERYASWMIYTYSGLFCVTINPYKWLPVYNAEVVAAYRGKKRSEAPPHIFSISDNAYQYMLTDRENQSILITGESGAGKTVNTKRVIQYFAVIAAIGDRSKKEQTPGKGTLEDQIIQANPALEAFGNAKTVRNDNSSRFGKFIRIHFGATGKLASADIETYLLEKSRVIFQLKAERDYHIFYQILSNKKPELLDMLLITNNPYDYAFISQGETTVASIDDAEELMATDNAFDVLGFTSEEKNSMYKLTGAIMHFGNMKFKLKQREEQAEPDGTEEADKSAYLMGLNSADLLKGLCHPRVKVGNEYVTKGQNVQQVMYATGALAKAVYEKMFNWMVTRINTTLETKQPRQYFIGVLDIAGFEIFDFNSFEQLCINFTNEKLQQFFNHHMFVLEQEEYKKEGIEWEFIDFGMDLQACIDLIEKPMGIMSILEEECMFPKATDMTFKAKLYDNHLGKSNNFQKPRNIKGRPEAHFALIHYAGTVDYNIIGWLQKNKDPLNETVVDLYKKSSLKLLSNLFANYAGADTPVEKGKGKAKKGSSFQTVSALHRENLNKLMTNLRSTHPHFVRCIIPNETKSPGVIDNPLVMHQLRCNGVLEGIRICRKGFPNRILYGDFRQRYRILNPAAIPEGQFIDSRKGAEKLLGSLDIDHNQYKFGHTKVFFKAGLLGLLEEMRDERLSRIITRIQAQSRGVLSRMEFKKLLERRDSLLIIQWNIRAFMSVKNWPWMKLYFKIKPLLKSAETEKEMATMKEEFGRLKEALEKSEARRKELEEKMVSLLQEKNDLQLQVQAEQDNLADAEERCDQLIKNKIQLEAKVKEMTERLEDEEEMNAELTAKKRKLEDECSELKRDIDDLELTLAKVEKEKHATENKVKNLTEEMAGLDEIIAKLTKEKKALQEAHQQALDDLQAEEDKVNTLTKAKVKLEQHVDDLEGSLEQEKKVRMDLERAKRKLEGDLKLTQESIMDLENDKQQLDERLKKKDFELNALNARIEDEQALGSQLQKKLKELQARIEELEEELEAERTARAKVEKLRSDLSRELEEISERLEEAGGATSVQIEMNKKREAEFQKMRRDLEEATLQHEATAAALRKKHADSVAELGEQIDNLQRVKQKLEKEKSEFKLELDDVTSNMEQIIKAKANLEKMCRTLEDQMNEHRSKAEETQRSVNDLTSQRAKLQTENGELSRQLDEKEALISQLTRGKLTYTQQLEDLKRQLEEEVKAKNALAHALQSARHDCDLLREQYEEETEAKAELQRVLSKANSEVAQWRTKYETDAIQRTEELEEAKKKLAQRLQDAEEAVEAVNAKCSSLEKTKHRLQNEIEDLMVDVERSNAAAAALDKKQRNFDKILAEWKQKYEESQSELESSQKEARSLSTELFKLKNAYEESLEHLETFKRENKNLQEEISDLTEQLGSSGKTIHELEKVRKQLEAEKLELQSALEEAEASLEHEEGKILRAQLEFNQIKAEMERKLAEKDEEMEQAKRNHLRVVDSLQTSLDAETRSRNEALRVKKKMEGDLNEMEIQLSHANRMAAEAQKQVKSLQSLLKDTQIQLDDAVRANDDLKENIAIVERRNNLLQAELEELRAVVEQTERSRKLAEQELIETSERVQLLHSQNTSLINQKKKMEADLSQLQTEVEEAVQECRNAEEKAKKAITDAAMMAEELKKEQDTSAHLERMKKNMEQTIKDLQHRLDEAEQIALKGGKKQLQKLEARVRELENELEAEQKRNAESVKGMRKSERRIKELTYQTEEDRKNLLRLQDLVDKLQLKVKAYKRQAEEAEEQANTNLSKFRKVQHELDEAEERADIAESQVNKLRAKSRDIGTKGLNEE
Method in brief: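 Myofibrils from Yucatan minipig left ventricle; ADP production coupled via PK-LDH to NADH loss, read kinetically at 340 nm every 1.5–2 min for 75 min in PIPES/MgCl2 pH 7.0 buffer. Slopes normalized to vehicle and fit to 4-parameter logistic; values are concentrations giving 75% (inhibition) or 125% (activation) of vehicle activity.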

Row | SMILES | Rabbit Psoas EC25 (Y75 value) [1] [µM] | Porcine Atria EC25 (Y75 value) [2] [µM] | Porcine Ventricle EC25 (Y75 value) [3] [µM] | Rabbit Psoas Y125 value (marked #) ([1]; concentration required to increase myosin ATP-ase activity by 25%)
1 | C[C@H](NC(=O)Cn1c(=O)[nH]c2ncncc2c1=O)c1ccc(F)cc1F [Compound 95, (S)-N-(1-(2,4-difluorophenyl)ethyl)-2-(2,4-dioxo-1,4-dihydropyrimido[4,5-d]pyrimidin-3(2H)-yl)acetamide] | 100 | 100 | 100 | 
2 | C[C@H](NC(=O)Cn1c(=O)[nH]c2cncnc2c1=O)c1ccc(F)cc1F [Compound 96, (S)-N-(1-(2,4-difluorophenyl)ethyl)-2-(2,4-dioxo-1,4-dihydropyrimido[5,4-d]pyrimidin-3(2H)-yl)acetamide] | 100 | 100 | 100 | 
3 | CC(NC(=O)Cn1c(=O)[nH]c2ccccc2c1=O)c1ccc(F)cn1 (stereo not drawn) [Compound 106, 2-(2,4-dioxo-1,4-dihydroquinazolin-3(2H)-yl)-N-(1-(5-fluoropyridin-2-yl)ethyl)acetamide] | 72.241 | 100 | 100 | 
4 | COc1ccc2c(=O)n(CC(=O)N[C@@H](C)c3ccc(F)cc3F)c(=O)[nH]c2c1 [Compound 142, (S)-N-(1-(2,4-difluorophenyl)ethyl)-2-(7-methoxy-2,4-dioxo-1,4-dihydroquinazolin-3(2H)-yl)acetamide] | 100 | 100 | 100 | 
5 | C[C@H](NC(=O)Cn1c(=O)[nH]c2cc(F)ccc2c1=O)c1ccc(F)cc1F [Compound 143, (S)-N-(1-(2,4-difluorophenyl)ethyl)-2-(7-fluoro-2,4-dioxo-1,4-dihydroquinazolin-3(2H)-yl)acetamide] | 9.2 | 2.081 | 100 | 
6 | C[C@H](NC(=O)Cn1c(=O)[nH]c2cccc(F)c2c1=O)c1ccc(F)cc1F [Compound 154, (S)-N-(1-(2,4-difluorophenyl)ethyl)-2-(5-fluoro-2,4-dioxo-1,4-dihydroquinazolin-3(2H)-yl)acetamide] | 0.11 | 0.1312 | 1.15 | 
7 | C[C@H](NC(=O)Cn1c(=O)[nH]c2ccc(F)cc2c1=O)c1ccc(F)cc1F [Compound 155, (S)-N-(1-(2,4-difluorophenyl)ethyl)-2-(6-fluoro-2,4-dioxo-1,4-dihydroquinazolin-3(2H)-yl)acetamide] | 0.073 | 0.0623 | 0.1805 | 
8 | C[C@@H](NC(=O)Cn1c(=O)[nH]c2ccccc2c1=O)c1ccc(F)cc1F [Compound 166, (R)-N-(1-(2,4-difluorophenyl)ethyl)-2-(2,4-dioxo-1,4-dihydroquinazolin-3(2H)-yl)acetamide] | 100 | 100 | 100 | 
9 | CC(NC(=O)Cn1c(=O)[nH]c2ccccc2c1=O)c1ccc(F)cc1F (stereo not drawn) [Compound 169, N-(1-(2,4-difluorophenyl)ethyl)-2-(2,4-dioxo-1,4-dihydroquinazolin-3(2H)-yl)acetamide] | 0.494 | 2.407 | 31.6 | 
10 | CC(NC(=O)Cn1c(=O)[nH]c2ccccc2c1=O)c1ccncc1 (stereo not drawn) [Compound 213, 2-(2,4-dioxo-1,4-dihydroquinazolin-3(2H)-yl)-N-(1-(pyridin-4-yl)ethyl)acetamide] | 100 | 100 | 100 | 
11 | CC(NC(=O)Cn1c(=O)[nH]c2ccccc2c1=O)c1cncnc1 (stereo not drawn) [Compound 214, 2-(2,4-dioxo-1,4-dihydroquinazolin-3(2H)-yl)-N-(1-(pyrimidin-5-yl)ethyl)acetamide] | 100 | 100 | 100 | 
12 | CC(NC(=O)Cn1c(=O)[nH]c2ccccc2c1=O)c1cnccn1 (stereo not drawn) [Compound 215, 2-(2,4-dioxo-1,4-dihydroquinazolin-3(2H)-yl)-N-(1-(pyrazin-2-yl)ethyl)acetamide] | 100 | 23.9 | 45.3 | 
13 | C[C@H](NC(=O)Cn1c(=O)[nH]c2cnccc2c1=O)c1ccc(F)cc1F [Compound 301, (S)-N-(1-(2,4-difluorophenyl)ethyl)-2-(2,4-dioxo-1,4-dihydropyrido[3,4-d]pyrimidin-3(2H)-yl)acetamide] | 5.422 | 79 | 100 | 
14 | C[C@H](NC(=O)Cn1c(=O)[nH]c2ncccc2c1=O)c1ccc(F)cc1F [Compound 302, (S)-N-(1-(2,4-difluorophenyl)ethyl)-2-(2,4-dioxo-1,4-dihydropyrido[2,3-d]pyrimidin-3(2H)-yl)acetamide] | 100 | 100 | 100 | 
15 | C[C@H](NC(=O)Cn1c(=O)[nH]c2cccnc2c1=O)c1ccc(F)cc1F [Compound 303, (S)-N-(1-(2,4-difluorophenyl)ethyl)-2-(2,4-dioxo-1,4-dihydropyrido[3,2-d]pyrimidin-3(2H)-yl)acetamide] | 23 | 100 | 100 | 
16 | CC(C)[C@H](N)C(=O)OCn1c(=O)n(CC(=O)N[C@@H](C)c2ccc(F)cc2F)c(=O)c2cc(F)ccc21 [Compound 401, (3-(2-(((S)-1-(2,4-difluorophenyl)ethyl)amino)-2-oxoethyl)-6-fluoro-2,4-dioxo-3,4-dihydroquinazolin-1(2H)-yl)methyl L-valinate] | 6.978 | 46.5 | 100 | 
17 | COCn1c(=O)n(CC(=O)N[C@@H](C)c2ccc(F)cc2F)c(=O)c2cc(F)ccc21 [Compound 402, (S)-N-(1-(2,4-difluorophenyl)ethyl)-2-(6-fluoro-1-(methoxymethyl)-2,4-dioxo-1,4-dihydroquinazolin-3(2H)-yl)acetamide] | 100 | 100 | 100 | 
18 | C[C@H](NC(=O)Cn1c(=O)c2cc(F)ccc2n(C)c1=O)c1ccc(F)cc1F [Compound 404, (S)-N-(1-(2,4-difluorophenyl)ethyl)-2-(6-fluoro-1-methyl-2,4-dioxo-1,4-dihydroquinazolin-3(2H)-yl)acetamide] |  | 12.2 | 100 | 100^# ^ μM
19 | C[C@H](NC(=O)Cn1c(=O)[nH]c2cc(C(F)(F)F)ccc2c1=O)c1ccc(F)cc1F [Compound 405, (S)-N-(1-(2,4-difluorophenyl)ethyl)-2-(2,4-dioxo-7-(trifluoromethyl)-1,4-dihydroquinazolin-3(2H)-yl)acetamide] | 100 | 100 | 100 | 
